According to ChEMBL document CHEMBL4219249, “Discovery of d-amino acid oxidase inhibitors based on virtual screening against the lid-open enzyme conformation” (Bioorg Med Chem Lett, 2018):

Key:
D-amino-acid oxidase [1] = biological target: T1, D-amino-acid oxidase (Homo sapiens, UniProt P14920); assay: Inhibition of human DAAO using D-kynurenine as substrate
Target sequence in this assay (P14920 whole entry): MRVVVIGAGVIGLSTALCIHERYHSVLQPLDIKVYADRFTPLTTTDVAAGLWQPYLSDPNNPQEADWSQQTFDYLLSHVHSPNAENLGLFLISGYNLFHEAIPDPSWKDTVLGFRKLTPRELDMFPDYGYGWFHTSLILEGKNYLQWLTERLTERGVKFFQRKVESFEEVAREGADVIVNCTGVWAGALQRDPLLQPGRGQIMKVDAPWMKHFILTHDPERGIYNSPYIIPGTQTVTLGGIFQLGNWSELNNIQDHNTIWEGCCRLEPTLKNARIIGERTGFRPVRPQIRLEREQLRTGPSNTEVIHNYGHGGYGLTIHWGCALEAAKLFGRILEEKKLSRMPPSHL

D-amino-acid oxidase [2] = biological target: T1, D-amino-acid oxidase; assay: Inhibition of human DAAO at 20 uM using D-kynurenine as substrate relative to control
Target sequence in this assay (P14920 whole entry, looked up): as the sequence (P14920 whole entry) above

| IC50 (D-amino-acid oxidase [1]) | inhibition (D-amino-acid oxidase [2]) | Structure (SMILES) |
| --- | --- | --- |
| 0.39 µM | 100% | O=C(O)CNC(=O)c1cc(NC(=O)c2cc(Br)c(Br)[nH]2)c[nH]1 |
| 5.2 µM | 100% | O=C(O)CNC(=O)c1cc(NC(=O)c2cc(Cl)c(Cl)[nH]2)c[nH]1 |
| – | 35% | O=C(O)CNC(=O)c1cc([N+](=O)[O-])c[nH]1 |
| 8.8 µM | 100% | Cc1[nH]c(C(=O)Nc2c[nH]c(C(=O)NCC(=O)O)c2)c(Cl)c1Cl |
| – | 0% | CN(C(=O)c1cc(Br)c(Br)[nH]1)c1c[nH]c(C(=O)NCC(=O)O)c1 |
| – | 33% | O=C(O)CNC(=O)c1cc(NC(=O)c2ccc([N+](=O)[O-])[nH]2)c[nH]1 |
| 6.7 µM | 100% | O=C(O)CNC(=O)c1cc(NC(=O)c2cc(Br)c[nH]2)c[nH]1 |
| – | 0% | CN(CC(=O)O)C(=O)c1cc(N(C)C(=O)c2cc(Br)c(Br)[nH]2)c[nH]1 |
| 0.49 µM | 100% | CN(CC(=O)O)C(=O)c1cc(NC(=O)c2cc(Br)c(Br)[nH]2)c[nH]1 |
| – | 18% | O=C(O)CNC(=O)c1cc(NC(=O)c2ccccn2)c[nH]1 |
| – | 32% | Cn1cc(NC(=O)c2cc(Br)c(Br)[nH]2)cc1C(=O)NCC(=O)O |
| – | 39% | CC(=O)Nc1c[nH]c(C(=O)NCC(=O)O)c1 |
| – | 45% | O=C(O)CNC(=O)c1cc(NC(=O)c2cccnc2)c[nH]1 |
| – | 8% | O=C(O)CNC(=O)c1cc(NC(=O)c2cc3ccccc3[nH]2)c[nH]1 |
